From article PMC1082716, “Blockade of chemokine-induced signalling inhibits CCR5-dependent HIV infection in vitro without blocking gp120/CCR5 interaction” (Retrovirology, 2005)
Entries after “also recorded” stand apart in the source; their conditions may differ.

Experiments:
Type in all cases: cell-based
HIV (IIIb) = HIV (IIIb) infection of Jurkat T-cells, p24gag immunofluorescence; details: Peptide 3 100 μM, approximately 48 h after infection
Experimental: HIV infection of Jurkat T-cells was also monitored by high sensitivity quantitative immunofluoresence detection of viral p24^gag expression. Jurkat cells were infected with HIV in the presence or absence of Peptide 3 (100 μM) or SDF1α (100 ng/ml) as described above. Approximately 48 h after infection, the cells were attached to glass slides using a cytospin and then fixed by immersion in ice-cold 70% ethanol for 90 seconds. Expression of p24^gag was determined using quantitative immunofluoresence as previously described, except that the primary antibody was post-fixed to the section using paraformaldehyde to increase the sensitivity of the technique (see Methods). Viral infectivity was expressed as the number of cells stained for p24^gag expressed as a proportion of the total number of cells (detected using Hoechst 33342 nuclear dye). […]
Jurkat cells following HIV infection were attached to 8-well chamber slides (Becton-Dickinson) by spinning the slides using a plate rotor in a Labofuge centrifuge (Heraeus) at 3,000 × g for 5 minutes. […] A threshold was then applied to each image which was the lowest threhold that detected <1% of the pixels of an image of uninfected cells stained under identical conditions. The number of objects exceeding this threshold in each field of view were counted. […]

[1] = tested on: RANTES-induced chemotaxis; assay: RANTES-/MIP1α-induced chemotaxis (ChemoTx transwell); details: RANTES per text, 25 ng/ml MIP1α per Fig 2f legend; 5 × 10^4 cells per well; 2 h, 37°C; MTT; triplicate
Experimental: (§1) Figure 2 Effect of Peptide 3 on gp120:V3 loop peptide binding to cells. (a) The binding of 100 μM N-terminal biotinylated gp120:V3(IIIb) to THP-1 cells was measured in the presence of various concentrations of peptide 3. In each case, the non-specific binding (in the presence of 10 mM unlabelled gp120:V3 loop peptide) has been subtracted. (b) Chemotaxis in response to 100 ng/ml SDF1α was measured in the presence of various concentrations of peptide 3. […] (e) As for (a) except that the effect of Peptide 3 on the binding of gp120:V3(BaL) to THP-1 cells was determined. (f) As for (b) except that the effect of Peptide 3 on chemotaxis induced by 25 ng/ml MIP1α was determined. All binding reactions were performed with 10^6 cells in 100 μl of binding medium at 4°C. Chemotaxis assays were performed with 5 × 10^4 cells per well. Values are mean ± SEM of triplicate determinations.
Chemotaxis experiments were performed essentially as previously described, using the ChemoTx disposable 96-well transwell migration plates, with PVP-free membrane (6 μm pore size). […] The number of cells which had migrated to the lower compartment was determined using the vital dye MTT and interpolation of a standard curve. Each condition was determined in triplicate, and the number of cells migrating in the absence of chemoattractant was subtracted to determine the chemokine-dependent chemotaxis which was reported.

[2] = tested on: SDF-1α induced chemotaxis; assay: SDF-1α induced chemotaxis (ChemoTx transwell); details: 100 ng/ml SDF1α; various concentrations of inhibitor in both compartments; 5 × 10^4 cells per well; 2 h, 37°C; MTT; triplicate
Experimental: as §1, with “In each case, the non-specific binding (in the presence of 10 mM unlabelled gp120:V3 loop peptide) has been subtracted.” left out
Chemotaxis experiments were performed essentially as previously described, using the ChemoTx disposable 96-well transwell migration plates, with PVP-free membrane (6 μm pore size). Chemoattractant (lower compartment) and cells upper compartment) were suspended in Gey's Balanced salt solution + 1 mg/ml BSA. […] Migration was allowed to proceed for 2 hours at 37°C. […] Each condition was determined in triplicate, and the number of cells migrating in the absence of chemoattractant was subtracted to determine the chemokine-dependent chemotaxis which was reported.

For EICADPKQKWVQ [Peptide 3], which “Effect on viral infectivity (p24gag, in words)” value (HIV (IIIb)) is on record?
The value was “no effect”.

What about the “Effect on RANTES-induced chemotaxis” value [1] of the same sequence?
The value was “powerfully inhibited; also recorded: profoundly blocked”.

What about the “Effect on SDF-1α induced chemotaxis” value [2] of the same sequence?
The value was “powerfully inhibited; also recorded: efficiently blocks”.
